# According to patent US12240862B2, “Inhibitors of peptidylarginine deiminases” (Gilead Sciences, Inc., priority 2020, dated 2025):
# Molecular target: T1, human PAD4 (Homo sapiens, UniProt Q9UM07)
# T1 construct: human PAD4 (NM_012387), A2P663, was PCR amplified; His-SUMO (N, cleaved yes); made in house; host or cells: E. coli BL21(DE3)
# Test: In vitro PAD4 BAEE biochemical assay
# Conditions: human PAD4, BAEE substrate; 5 nM PAD4, 2 mM calcium chloride, 3 mM BAEE; geometric mean of multiple experiments
# How it was run: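 Ammonia generated from BAEE serves as the readout, measured by o-phthalaldehyde after EDTA termination. Final conditions: 5 nM human PAD4 (SUMO tag cleaved), 2 mM CaCl2, 3 mM BAEE, pH 7.6 MOPS buffer, 25 °C for 2 h following a 30-min compound preincubation.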
# T1 sequence (Q9UM07 2-663): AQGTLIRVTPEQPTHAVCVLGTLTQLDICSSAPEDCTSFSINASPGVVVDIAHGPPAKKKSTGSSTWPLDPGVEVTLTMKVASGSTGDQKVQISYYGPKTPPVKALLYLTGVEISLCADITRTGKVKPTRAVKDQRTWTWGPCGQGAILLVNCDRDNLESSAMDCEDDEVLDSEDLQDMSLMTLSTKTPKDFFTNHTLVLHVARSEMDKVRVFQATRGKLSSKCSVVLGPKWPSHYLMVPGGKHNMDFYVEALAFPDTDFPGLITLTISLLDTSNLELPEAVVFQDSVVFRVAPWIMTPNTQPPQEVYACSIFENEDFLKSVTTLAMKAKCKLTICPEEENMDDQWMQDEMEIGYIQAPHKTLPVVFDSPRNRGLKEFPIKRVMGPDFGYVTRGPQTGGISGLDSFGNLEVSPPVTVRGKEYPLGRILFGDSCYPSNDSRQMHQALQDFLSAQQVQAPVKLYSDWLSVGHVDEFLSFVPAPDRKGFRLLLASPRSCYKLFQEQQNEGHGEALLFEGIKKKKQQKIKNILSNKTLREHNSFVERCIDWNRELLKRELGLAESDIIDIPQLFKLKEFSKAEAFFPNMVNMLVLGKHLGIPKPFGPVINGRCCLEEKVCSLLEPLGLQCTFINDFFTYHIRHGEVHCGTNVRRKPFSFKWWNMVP
row,SMILES,IC50 [nM]
1,COc1cc(C(=O)N2C[C@H]3CCN[C@H]3C2)cc2nc(-c3cc4ccc([C@@H](C)NC(=O)C56CC(F)(C5)C6)nc4n3CC3CC3)c(C)n12 [Example 21],2060
2,"COc1cc(C(=O)N2CC[C@H]3CCCN[C@H]3C2)cc2nc(-c3cc4ccc([C@@H](C)NC(=O)C56CC(F)(C5)C6)nc4n3CC3CC3)c(C)n12 [Example 180, ~{N}-[(1~{R})-1-[2-[7-[(4~{a}~{R},8~{a}~{R})-2,3,4,4~{a},5,6,8,8~{a}-octahydro-1~{H}-1,7-naphthyridine-7-carbonyl]-5-methoxy-3-methylimidazo [1,2-a]pyridin-2-yl]-1-(cyclopropylmethyl)pyrrolo [2,3-b]pyridin-6-yl]ethyl]-3-fluorobicyclo[1.1.1]pentane-1-carboxamide]",494
3,"COc1cc(C(=O)N2C[C@@H]3CCCN[C@@H]3C2)cc2nc(-c3cc4ccc(N(C(F)F)S(C)(=O)=O)nc4n3CC3CC3)c(C)n12 [Example 337, ~{N}-[2-[7-[(4~{a}~{S}, 7~{a}~{S})-1,2,3,4,4~{a},5,7,7~{a}-octahydropyrrolo[3,4-b]pyridine-6-carbonyl]-5-methoxy-3-methylimidazo[1,2-a]pyridin-2-yl]-1-(cyclopropylmethyl)pyrrolo [2,3-b]pyridin-6-yl]-~{N}-(difluoromethyl) methanesulfonamide]",12100
4,COc1cc(C(=O)N2[C@@H]3CC[C@H]2[C@@H](N)[C@@H](OC)C3)cc2nc(-c3cc4ccc([C@@H](C)NC(=O)C56CC(F)(C5)C6)nc4n3CC3CC3)c(C)n12 [Example 182],1360
5,"COc1cc(C(=O)N2CCC[C@@H](N)C2)cc2nc(-c3cc4ccc(-c5ccc(N)nc5C)nc4n3CC3CC3)c(C)n12 [Example 605, [2-[6-(6-amino-2-methylpyridin-3-yl)-1-(cyclopropylmethyl)pyrrolo[2,3-b]pyridin-2-yl]-5-methoxy-3-methylimidazo[1,2-a]pyridin-7-yl]-[(3~{R})-3-aminopiperidin-1-yl]methanone]",518
6,"Cc1c(-c2cc3ccc(N(C(F)F)S(C)(=O)=O)nc3n2CC2CC2)nc2cc(C(=O)N3CCC[C@@H](N)C3)cc(C3CC3)n12 [Example 428, ~{N}-[2-[7-[(3~{R})-3-aminopiperidine-1-carbonyl]-5-cyclopropyl-3-methylimidazo [1,2-a]pyridin-2-yl]-1-(cyclopropylmethyl)pyrrolo [2,3-b]pyridin-6-yl]-~{N}-(difluoromethyl) methanesulfonamide]",1020
7,"COc1cc(C(=O)N2C[C@@H]3CC[C@H]2CN3)cc2nc(-c3cc4ccc([C@@H](C)NC(=O)C56CC(F)(C5)C6)nc4n3CC3CC3)c(C)n12 [Example 3, ~{N}-[(1~{R})-1-[1-(cyclopropylmethyl)-2-[7-[(1~{S},4~{S})-2,5-diazabicyclo[2.2.2]octane-2-carbonyl]-5-methoxy-3-methylimidazo[1,2-a]pyridin-2-yl]pyrrolo [2,3-b]pyridin-6-yl]ethyl]-3-fluorobicyclo [1.1.1] pentane-1-carboxamide]",11000
8,"COc1cc(C(=O)N2CCC3(CCCCN3)C2)cc2nc(-c3cc4ccc([C@@H](C)NC(=O)C56CC(F)(C5)C6)nc4n3CC3CC3)c(C)n12 (some centres unmarked) [Example 4, ~{N}-[(1~{R})-1-[1-(cyclopropylmethyl)-2-[7-(2,6-diazaspiro [4.5]decane-2-carbonyl)-5-methoxy-3-methylimidazo[1,2-a]pyridin-2-yl]pyrrolo[2,3-b]pyridin-6-yl]ethyl]-3-fluorobicyclo[1.1.1] pentane-1-carboxamide]",23400
9,"CC(C)c1c(-c2cc3ccc(N(C(F)F)S(C)(=O)=O)nc3n2CC2CC2)nc2cc(C(=O)N3CCC[C@@H](N)C3)ccn12 [Example 433, ~{N}-[2-[7-[(3~{R})-3-aminopiperidine-1-carbonyl]-3-propan-2-ylimidazo[1,2-a]pyridin-2-yl]-1-(cyclopropylmethyl)pyrrolo [2,3-b]pyridin-6-yl]-~{N}-(difluoromethyl) methanesulfonamide]",7040

# Molecules with a lower IC50, results first:
row,IC50 [nM],SMILES
1,40.1,"COc1cc(C(=O)N2[C@H]3CC[C@@H]2[C@H](N)C3)cc2nc(-c3cc4ccc([C@@H](C)NC(=O)C(C)C)nc4n3CC3CC3)c(C)n12 [Example 89, ~{N}-[(1~{R})-1-[2-[7-[(1~{R},2~{R},4~{S})-2-amino-7-azabicyclo[2.2.1]heptane-7-carbonyl]-5-methoxy-3-methylimidazo [1,2-a]pyridin-2-yl]-1-(cyclopropylmethyl)pyrrolo [2,3-b]pyridin-6-yl]ethyl]-2-methylpropanamide]"
2,64.5,"COc1cc(C(=O)N2[C@H]3CC[C@@H]2[C@H](N)C3)cc2nc(-c3cc4ccc([C@@H](C)NC(=O)[C@@H](C)OC)nc4n3CC3CC3)c(C)n12 [Example 40, (2~{R})-~{N}-[(1~{R})-1-[2-[7-[(1~{R},2~{R},4~{S})-2-amino-7-azabicyclo [2.2.1]heptane-7-carbonyl]-5-methoxy-3-methylimidazo [1,2-a]pyridin-2-yl]-1-(cyclopropylmethyl)pyrrolo[2,3-b]pyridin-6-yl]ethyl]-2-methoxypropanamide]"
3,337,"COc1cc(C(=O)N2[C@H]3CC[C@@H]2[C@H](N)[C@H](O)C3)cc2nc(-c3cc4ccc(N(C(F)F)S(C)(=O)=O)nc4n3CC3CC3)c(C)n12 [Example 416, ~{N}-[2-[7-[(1~{R},2~{S},3~{R}, 5~{S})-2-amino-3-hydroxy-8-azabicyclo[3.2.1]octane-8-carbonyl]-5-methoxy-3-methylimidazo[1,2-a]pyridin-2-yl]-1-(cyclopropylmethyl)pyrrolo [2,3-b]pyridin-6-yl]-~{N}-(difluoromethyl) methanesulfonamide]"
4,65.2,"COc1cc(C(=O)N2[C@H]3CC[C@@H]2[C@H](N)C3)cc2nc(-c3cc4ccc([C@@H](C)NC(=O)N5CC(O)C5)nc4n3CC3CC3)c(C)n12 [Example 227, ~{N}-[(1~{R})-1-[2-[7-[(1~{R},2~{R},4~{S})-2-amino-7-azabicyclo[2.2.1]heptane-7-carbonyl]-5-methoxy-3-methylimidazo [1,2-a]pyridin-2-yl]-1-(cyclopropylmethyl)pyrrolo [2,3-b]pyridin-6-yl]ethyl]-3-hydroxyazetidine-1-carboxamide]"
5,43.5,"COc1cc(C(=O)N2[C@H]3CC[C@@H]2[C@H](N)C3)cc2nc(-c3cc4ccc([C@@H](C)NC(=O)C5(O)CCC5)nc4n3CC3CC3)c(C)n12 [Example 95, ~{N}-[(1~{R})-1-[2-[7-[(1~ {R},2~{R},4~{S})-2-amino-7-azabicyclo[2.2.1]heptane-7-carbonyl]-5-methoxy-3-methylimidazo[1,2-a]pyridin-2-yl]-1-(cyclopropylmethyl)pyrrolo [2,3-b]pyridin-6-yl]ethyl]-1-hydroxycyclobutane-1-carboxamide]"
6,53.4,"COc1cc(C(=O)N2[C@H]3CC[C@@H]2[C@H](N)C3)cc2nc(-c3cc4ccc([C@@H](C)NC(=O)CS(C)(=O)=O)nc4n3CC3CC3)c(C)n12 [Example 154, ~{N}-[(1~{R})-1-[2-[7-[(1~{R},2~{R},4~{S})-2-amino-7-azabicyclo[2.2.1]heptane-7-carbonyl]-5-methoxy-3-methylimidazo [1,2-a]pyridin-2-yl]-1-(cyclopropylmethyl)pyrrolo[2,3-b]pyridin-6-yl]ethyl]-2-methylsulfonylacetamide]"
7,85.7,"COc1cc(C(=O)N2[C@H]3CC[C@@H]2[C@H](N)C3)cc2nc(-c3cc4ccc([C@@H](C)NC(=O)c5cn(C)nn5)nc4n3CC3CC3)c(C)n12 [Example 1, ~{N}-[(1~{R})-1-[2-[7-[(1~{R},2~{R},4~{S})-2-amino-7-azabicyclo[2.2.1]heptane-7-carbonyl]-5-methoxy-3-methylimidazo [1,2-a]pyridin-2-yl]-1-(cyclopropylmethyl)pyrrolo [2,3-b]pyridin-6-yl]ethyl]-1-methyltriazole-4-carboxamide]"
8,41,"COc1cc(C(=O)N2[C@H]3CC[C@@H]2[C@H](N)C3)cc2nc(-c3cc4ccc([C@@H](C)NC(=O)C5CC56CC6)nc4n3CC3CC3)c(C)n12 (some centres unmarked) [Example 69, ~{N}-[(1~{R})-1-[2-[7-[(1~{R},2~{R},4~{S})-2-amino-7-azabicyclo [2.2.1]heptane-7-carbonyl]-5-methoxy-3-methylimidazo [1,2-a]pyridin-2-yl]-1-(cyclopropylmethyl)pyrrolo[2,3-b]pyridin-6-yl]ethyl]spiro[2.2] pentane-2-carboxamide]"
9,179,"COc1cc(C(=O)N2[C@H]3CC[C@@H]2[C@H](N)C3)cc2nc(-c3cc4ccc([C@@H](C)NC(=O)C(C)(C)C(F)(F)F)nc4n3CC3CC3)c(C)n12 [Example 171, ~{N}-[(1~{R})-1-[2-[7-[(1~{R},2~{R},4~{S})-2-amino-7-azabicyclo[2.2.1]heptane-7-carbonyl]-5-methoxy-3-methylimidazo [1,2-a]pyridin-2-yl]-1-(cyclopropylmethyl)pyrrolo [2,3-b]pyridin-6-yl]ethyl]-3,3,3-trifluoro-2,2-dimethylpropanamide]"
10,306,"COc1cc(C(=O)N[C@@H]2CCCCNC2)cc2nc(-c3cc4ccc(N(C(F)F)S(C)(=O)=O)nc4n3CC3CC3)c(C)n12 [Example 316, ~{N}-[(3~{R})-azepan-3-yl]-2-[1-(cyclopropylmethyl)-6-[difluoromethyl (methylsulfonyl)amino]pyrrolo[2,3-b]pyridin-2-yl]-5-methoxy-3-methylimidazo[1,2-a]pyridine-7-carboxamide]"
11,30.4,"COc1cc(C(=O)N2[C@H]3CC[C@@H]2[C@H](N)C3)cc2nc(-c3cc4ccc([C@@H](C)NC(=O)[C@H]5CC5(F)F)nc4n3CC3CC3)c(C)n12 [Example 131, (1~{R})-~{N}-[(1~{R})-1-[2-[7-[(1~{R},2~{R},4~{S})-2-amino-7-azabicyclo[2.2.1]heptane-7-carbonyl]-5-methoxy-3-methylimidazo [1,2-a]pyridin-2-yl]-1-(cyclopropylmethyl)pyrrolo [2,3-b]pyridin-6-yl]ethyl]-2,2-difluorocyclopropane-1-carboxamide]"
